Series [1] has as its target Hog Brain Phosphodiesterase (PDE). Briefly: Inhibition of c-AMP hydrolysis by hog brain phosphodiesterase (PDE). Conditions: for Ki: Lineweaver-Burk plot slope and Dixon plot cross-point, read-out: Inhibition II: Inhibition Constant (Ki); for Inhibition I: Relative Inhibition: c-AMP 1.0, derivative 1.0 millimole/liter. It counts as biochemical. How it is done: **PDE inhibition was evaluated based on the relative inhibition observed
when the sample compound was added at the same molar concentration as tha
of the substrate (1 millimole/liter) and the inhibition constant (ki)
calculated according to the enzymological method (Lineweaver-Burk plot).
The enzyme purification was conducted by ammonium sulfate fractionation and passage through DEAE cellulose column according to the modification of the method of T. S. Teo, T. T. Wang et al. (J. Biol. Chemi. 248, 585). […] Reaction and analysis were carried out as taught by Bucher and Sutherland [J. Biol. Chemi., 237, 1244 (1962)].
*: The values were calculated according the following equation: 100
containing no inhibitor.
**: Ki values were calculated from the slope of Lineweaver-Burk plot and
the cross-point of Dixon plot.?

For series [2], the system named is CHO-Ki cells. Kind of series: Reverse transformation of cultured CHO-Ki cells (c-AMP level elevation, membrane permeability by L.R.C.). Conditions: for minimal effective concentration: Cricetulus griseus, microscopic analysis after 16 and 30 hours, read-out: L.R.C. (limiting reverse-transformable concentration). Format: cell-based, Chinese hamster. How it is done:
We utilized their test system and tested new derivatives as regards the following two properties:
The tests were conducted in the following manner according to the modification of the method of Hsie and Puck:
2. The membrane permeability was evaluated based on the reverse transformation. More specifically, new derivatives were added at a concentration of 10^-3, 5 × 10^-2, 10^-1, 2× 10^-1, 5 × 10^-1 or 1 millimole/liter to the above-mentionedmedium. After 16 and 30 hours, microscopic analysis was conducted, and the limiting reverse-transformable concentration (referred to as "L.R.C.") was determined and the membrane permeability was evaluated, based on the so determined L.R.C. value.
***The membrane permeability was determined based on the minimum
concentration causing the re-transformation of cultured CHO-Ki cells. (Th

For series [3], the system named is Hog Brain Phosphodiesterase (PDE). Kind of series: Inhibition of c-AMP hydrolysis by hog brain phosphodiesterase (PDE). Format: biochemical. Conditions: c-AMP 1.0, derivative 0.5 millimole/liter.
For series [4], the system named is CHO-Ki cells. Conditions: 10^-3 mole/liter; Hsie and Puck; cited from earlier work.
Another series deals with protein kinases. The settings on record: Hsie and Puck; cited from earlier work.
Series [5] relates to Hog Brain Phosphodiesterase (PDE). Conditions: Hsie and Puck; cited from earlier work.

The source of these data is patent publication US4048307A, “Cyclic adenosine monophosphate 8-substituted derivatives” (priority 1974, dated 1977).

Bounds are passed on as bounds.

As a reminder, the Ki is the dissociation constant of the complex between target and ligand, obtained from inhibition or displacement. On to `CCCNc1nc2c(N)ncnc2n1[C@@H]1O[C@@H]2COP(=O)(O)O[C@H]2[C@H]1O` [8-CH3 (CH2)2 NH-c-AMP, 8-n-propylamino-c-AMP], for which, in series [1], the inhibition constant (Ki) is 230 µM and the “Inhibition I: Relative Inhibition” value is 51.1%.

For `CCCSc1nc2c(N)ncnc2n1[C@@H]1O[C@@H]2COP(=O)(O)O[C@H]2[C@H]1O` [8-CH3 (CH2)2 S-c-AMP, 8-n-propylmercapto-c-AMP], the minimal effective concentration in the series with CHO-Ki cells [2] is approximately 400 µM. Further, in series [1], the Ki is 78 µM and the “Inhibition I: Relative Inhibition” value came out at 60.1%.

Consider `CCCCNc1nc2c(N)ncnc2n1[C@@H]1O[C@@H]2COP(=O)(O)O[C@H]2[C@H]1O` [8-CH3 (CH2)3 NH-c-AMP, 8-n-butylamino-c-AMP], for which, in the series with CHO-Ki cells [2], the minimal effective concentration is approximately 300 µM. Further, in series [1], the inhibition constant Ki came out at 120 µM and the “Inhibition I: Relative Inhibition” value was found to be 55.6%.

In the case of `CCCCSc1nc2c(N)ncnc2n1[C@@H]1O[C@@H]2COP(=O)(O)O[C@H]2[C@H]1O` [8-CH3 (CH2)3 S-c-AMP, 8-n-butylmercapto-c-AMP], the minimal effective concentration in the series on CHO-Ki cells [2] was approximately 400 µM. For the same molecule, in series [1], the Ki was determined as 74 µM and the “Inhibition I: Relative Inhibition” value is reported as 64.3%.

Regarding `CCCCCNc1nc2c(N)ncnc2n1[C@@H]1O[C@@H]2COP(=O)(O)O[C@H]2[C@H]1O` [8-CH3 (CH2)4 NH-c-AMP, 8-n-pentylamino-c-AMP], in series [1], the inhibition constant Ki was found to be 72 µM and the “Inhibition I: Relative Inhibition” value was determined as 62.3%.

Regarding `CCCCCSc1nc2c(N)ncnc2n1[C@@H]1O[C@@H]2COP(=O)(O)O[C@H]2[C@H]1O` [8-CH3 (CH2)4 S-c-AMP, 8-n-amylmercapto-c-AMP], the minimal effective concentration in the series on CHO-Ki cells [2] was found to be 400 µM. Moreover, in series [1], the inhibitory constant (Ki) is 40 µM and the “Inhibition I: Relative Inhibition” value is 76.7%.

For `CCCCCCNc1nc2c(N)ncnc2n1[C@@H]1O[C@@H]2COP(=O)(O)O[C@H]2[C@H]1O` [8-CH3 (CH2)5 NH-c-AMP, 8-n-hexylamino-c-AMP], in series [1], the inhibition constant Ki came out at 58 µM and the “Inhibition I: Relative Inhibition” value is recorded as 76.1%.

As to `CCCCCCSc1nc2c(N)ncnc2n1[C@@H]1O[C@@H]2COP(=O)(O)O[C@H]2[C@H]1O` [8-CH3 (CH2)5 S-c-AMP, 8-n-hexylmercapto-c-AMP], the minimal effective concentration in the series on CHO-Ki cells [2] came to 300 µM. Further, in series [1], the Ki is 19 µM and the “Inhibition I: Relative Inhibition” value was 92.4%.

Consider `CCCCCCCNc1nc2c(N)ncnc2n1[C@@H]1O[C@@H]2COP(=O)(O)O[C@H]2[C@H]1O` [8-CH3 (CH2)6 NH-c-AMP, 8-n-heptylamino-c-AMP], for which, in series [1], the Ki amounted to 26 µM and the “Inhibition I: Relative Inhibition” value was 78.2%.

Consider `CCCCCCCSc1nc2c(N)ncnc2n1[C@@H]1O[C@@H]2COP(=O)(O)O[C@H]2[C@H]1O` [8-CH3 (CH2)6 S-c-AMP, 8-n-heptylmercapto-c-AMP], for which the “Inhibition I: Relative Inhibition” value in series [3] amounted to 90.4%. The minimal effective concentration in the series with CHO-Ki cells [2] was found to be 300 µM.

Take `CCCCCCCCNc1nc2c(N)ncnc2n1[C@@H]1O[C@@H]2COP(=O)(O)O[C@H]2[C@H]1O` [8-CH3 (CH2)7 NH-c-AMP, 8-n-octylamino-c-AMP]: in series [3], the “Inhibition I: Relative Inhibition” value came to 80.0%.

Take `CCCCCCCCSc1nc2c(N)ncnc2n1[C@@H]1O[C@@H]2COP(=O)(O)O[C@H]2[C@H]1O` [8-CH3 (CH2)7 S-c-AMP, 8-n-octylmercapto-c-AMP]: in the series with CHO-Ki cells [2], the “Toxic (remark at 10^-3 mole/liter)” value is given as “Toxic” and the minimal effective concentration was found to be 20 µM. Moreover, in series [1], the Ki came out at 16 µM and the “Inhibition I: Relative Inhibition” value is 95.0%.

As to `CCCCCCCCCNc1nc2c(N)ncnc2n1[C@@H]1O[C@@H]2COP(=O)(O)O[C@H]2[C@H]1O` [8-CH3 (CH2)8 NH-c-AMP, 8-n-nonylamino-c-AMP], in series [3], the “Inhibition I: Relative Inhibition” value worked out at 71.3%. Also, in series [1], the Ki was 27 µM.

For the molecule `CCCCCCCCCSc1nc2c(N)ncnc2n1[C@@H]1O[C@@H]2COP(=O)(O)O[C@H]2[C@H]1O` [8-CH3 (CH2)8 S-c-AMP, 8-n-nonylmercapto-c-AMP], the “Inhibition I: Relative Inhibition” value in series [3] is on record as 74.9%. In addition, in the series with CHO-Ki cells [2], the “Toxic (remark at 10^-3 mole/liter)” value is recorded as “Toxic” and the minimal effective concentration was found to be 10 µM. The Ki in series [1] amounted to 31 µM.

On to `CCCCCCCCCCNc1nc2c(N)ncnc2n1[C@@H]1O[C@@H]2COP(=O)(O)O[C@H]2[C@H]1O` [8-CH3 (CH2)9 NH-c-AMP, 8-n-decylamino-c-AMP], for which the “Inhibition I: Relative Inhibition” value in series [3] is on record as 67.6%. For the same molecule, in the series with CHO-Ki cells [2], the “Toxic (remark at 10^-3 mole/liter)” value is given as “Toxic” and the minimal effective concentration was approximately 80 µM. Also, the Ki in series [1] was found to be 82 µM.

Consider `CCCCCCCCCCSc1nc2c(N)ncnc2n1[C@@H]1O[C@@H]2COP(=O)(O)O[C@H]2[C@H]1O` [8-CH3 (CH2)9 S-c-AMP, 8-n-decylmercapto-c-AMP], for which the “Inhibition I: Relative Inhibition” value in series [3] was determined as 68.2%. Also, in the series on CHO-Ki cells [2], the “Toxic (remark at 10^-3 mole/liter)” value was “Toxic” and the minimal effective concentration is less than 5 µM. The Ki in series [1] is 46 µM.

On to `CCCCCCCCCCCNc1nc2c(N)ncnc2n1[C@@H]1O[C@@H]2COP(=O)(O)O[C@H]2[C@H]1O` [8-CH3 (CH2)10 NH-c-AMP, 8-n-undecylamino-c-AMP], for which, in series [3], the “Inhibition I: Relative Inhibition” value was 51.4%. In the series on CHO-Ki cells [2], the “Toxic (remark at 10^-3 mole/liter)” value is recorded as “Toxic” and the minimal effective concentration was approximately 50 µM. For the same molecule, the Ki in series [1] is 170 µM.

For the molecule `CCCCCCCCCCCSc1nc2c(N)ncnc2n1[C@@H]1O[C@@H]2COP(=O)(O)O[C@H]2[C@H]1O` [8-CH3 (CH2)10 S-c-AMP, 8-n-undecylmercapto-c-AMP], in the series with CHO-Ki cells [2], the “Toxic (remark at 10^-3 mole/liter)” value was “Toxic” and the minimal effective concentration is less than 5 µM. In series [1], the Ki is 88 µM and the “Inhibition I: Relative Inhibition” value is on record as 39.1%.

Take `CCCCCCCCCCCCNc1nc2c(N)ncnc2n1[C@@H]1O[C@@H]2COP(=O)(O)O[C@H]2[C@H]1O` [8-CH3 (CH2)11 NH-c-AMP, 8-n-dodecylamino-c-AMP]: the “Inhibition I: Relative Inhibition” value in series [3] is given as 18.3%. Moreover, in the series with CHO-Ki cells [2], the “Toxic (remark at 10^-3 mole/liter)” value is “Toxic” and the minimal effective concentration is approximately 70 µM. The Ki in series [1] came to 660 µM.

As for `CCCCCCCCCCCCSc1nc2c(N)ncnc2n1[C@@H]1O[C@@H]2COP(=O)(O)O[C@H]2[C@H]1O` [8-CH3 (CH2)11 S-c-AMP, 8-n-dodecylmercapto-c-AMP], in the series with CHO-Ki cells [2], the “Toxic (remark at 10^-3 mole/liter)” value is “Toxic” and the minimal effective concentration was less than 5 µM. Also, in series [1], the Ki came to 140 µM and the “Inhibition I: Relative Inhibition” value is recorded as 26.4%.

`CCCCCCCCCCCCCNc1nc2c(N)ncnc2n1[C@@H]1O[C@@H]2COP(=O)(O)O[C@H]2[C@H]1O` [8-CH3 (CH2)12 NH-c-AMP, 8-n-tridecylamino-c-AMP]: the “Inhibition I: Relative Inhibition” value in series [3] came out at 11.3%. Moreover, in the series with CHO-Ki cells [2], the “Toxic (remark at 10^-3 mole/liter)” value was “Toxic” and the minimal effective concentration was approximately 90 µM. Moreover, in series [1], the inhibitory constant (Ki) was 840 µM.

`CNc1nc2c(N)ncnc2n1[C@@H]1O[C@@H]2COP(=O)(O)O[C@H]2[C@H]1O` [8-CH3 NH-c-AMP, 8-methylamino-c-AMP, reference compound]: in the series on CHO-Ki cells [2], the minimal effective concentration was approximately 500 µM. Further, in series [1], the Ki worked out at 210 µM and the “Inhibition I: Relative Inhibition” value is 47.6%.

`Nc1ncnc2c1nc(Br)n2[C@@H]1O[C@@H]2COP(=O)(O)O[C@H]2[C@H]1O` [Example 8-Br-c-AMP, 8-bromo-c-AMP, reference compound]: in the series on CHO-Ki cells [2], the minimal effective concentration is approximately 200 µM. Moreover, in series [1], the inhibition constant (Ki) is 470 µM and the “Inhibition I: Relative Inhibition” value amounted to 38.9%.

As to `CCCC(=O)Nc1ncnc2c1ncn2[C@@H]1O[C@@H]2COP(=O)(O)O[C@H]2[C@H]1OC(=O)CCC` [N^6,O^2' -dibutyryl-c-AMP], the “reverse transformation of CHO-Ki (literature)” value with CHO-Ki cells [4] is recorded as “reversely transformed from the epitherial form to the fibroblast form”. Further, the “protein kinase activation (literature)” value in the series on protein kinases is on record as “activate protein kinases”. For the same molecule, the “PDE inhibition (literature)” value in series [5] is “inhibits PDE to elevate the intracellular c-AMP level”.
